According to PubChem BioAssay (NCI):
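In this assay, cells in 96-well plates receive the compound at five concentrations for 48 hours. Endpoints are linearly interpolated between the surrounding concentrations. GI50 = concentration required for 50% inhibition of growth. The concentration for full growth arrest is given as TGI.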

Columns and labels:
Test in all cases: NCI anticancer screen, dose series, 48 h
NCI-H23 lung = tested on: NCI-H23 lung
MDA-MB-231 breast = tested on: MDA-MB-231 breast
COLO 205 colon = tested on: COLO 205 colon
HS 578T breast = tested on: HS 578T breast
EKVX NSCLC = tested on: EKVX NSCLC
HCC-2998 colon = tested on: HCC-2998 colon
HL-60(TB) leukemia = tested on: HL-60(TB) leukemia
SK-MEL-2 melanoma = tested on: SK-MEL-2 melanoma
A549 NSCLC = tested on: A549 NSCLC
T-47D breast = tested on: T-47D breast
UACC-257 melanoma = tested on: UACC-257 melanoma
786-0 renal = tested on: 786-0 renal
SK-MEL-28 melanoma = tested on: SK-MEL-28 melanoma
SW-620 colon = tested on: SW-620 colon
HCT-116 colon = tested on: HCT-116 colon
DU-145 prostate = tested on: DU-145 prostate
NCI-H226 lung = tested on: NCI-H226 lung
K-562 leukemia = tested on: K-562 leukemia
CCRF-CEM leukemia = tested on: CCRF-CEM leukemia
LOX IMVI melanoma = tested on: LOX IMVI melanoma
SN12C renal = tested on: SN12C renal
NCI-H522 lung = tested on: NCI-H522 lung
PC-3 prostate = tested on: PC-3 prostate
RPMI-8226 leukemia = tested on: RPMI-8226 leukemia
KM12 colon = tested on: KM12 colon
SK-MEL-5 melanoma = tested on: SK-MEL-5 melanoma
NCI-H460 lung = tested on: NCI-H460 lung
U251 CNS = tested on: U251 CNS
OVCAR-8 ovarian = tested on: OVCAR-8 ovarian
M14 melanoma = tested on: M14 melanoma
TK-10 renal = tested on: TK-10 renal
OVCAR-5 ovarian = tested on: OVCAR-5 ovarian
SK-OV-3 ovarian = tested on: SK-OV-3 ovarian
HCT-15 colon = tested on: HCT-15 colon
CAKI-1 renal = tested on: CAKI-1 renal
UACC-62 melanoma = tested on: UACC-62 melanoma
NCI/ADR-RES ovarian = tested on: NCI/ADR-RES ovarian
IGROV1 ovarian = tested on: IGROV1 ovarian
HT29 colon = tested on: HT29 colon
OVCAR-3 ovarian = tested on: OVCAR-3 ovarian
SF-268 CNS = tested on: SF-268 CNS
ACHN renal = tested on: ACHN renal
OVCAR-4 ovarian = tested on: OVCAR-4 ovarian
UO-31 renal = tested on: UO-31 renal
SR leukemia = tested on: SR leukemia
MDA-MB-435 = tested on: MDA-MB-435
MCF7 breast = tested on: MCF7 breast
A498 renal = tested on: A498 renal
MOLT-4 leukemia = tested on: MOLT-4 leukemia
HOP-62 NSCLC = tested on: HOP-62 NSCLC
SNB-19 CNS = tested on: SNB-19 CNS
SF-295 CNS = tested on: SF-295 CNS
MALME-3M melanoma = tested on: MALME-3M melanoma
HOP-92 NSCLC = tested on: HOP-92 NSCLC
SNB-75 CNS = tested on: SNB-75 CNS
BT-549 breast = tested on: BT-549 breast
RXF 393 renal = tested on: RXF 393 renal

Work on C[C@@H]1C/C=C\C(=O)O[C@H](/C=C/C#C/C=C/C(C)(C)[C@@H](O)c2cccc(O)c2Br)[C@@H](C)/C=C/[C@H](C)C[C@H](OC(N)=O)C1 yielded a GI50 (NCI-H23 lung) of 319 nM, a TGI (NCI-H23 lung) of 21600 nM and a GI50 (MDA-MB-231 breast) of 13.9 nM. It also gave a TGI (MDA-MB-231 breast) of 2120 nM, a GI50 (COLO 205 colon) of 43.5 nM and a TGI (COLO 205 colon) of 21400 nM. It also gave a GI50 (HS 578T breast) of 400 nM, a TGI (HS 578T breast) of 32300 nM and a GI50 (EKVX NSCLC) of 71.6 nM. The TGI (EKVX NSCLC) was 18700 nM, the GI50 (HCC-2998 colon) was 54 nM and the TGI (HCC-2998 colon) was 11800 nM. The GI50 (HL-60(TB) leukemia) was 38.2 nM, the TGI (HL-60(TB) leukemia) was 2260 nM and the GI50 (SK-MEL-2 melanoma) was 34.6 nM. For the same molecule, the TGI (SK-MEL-2 melanoma) was 1010 nM, the GI50 (A549 NSCLC) was 33.2 nM and the TGI (A549 NSCLC) was 19500 nM. For the same molecule, the GI50 (T-47D breast) was 35.4 nM, the TGI (T-47D breast) was 22900 nM and the GI50 (UACC-257 melanoma) was 32.2 nM. The TGI (UACC-257 melanoma) was 4080 nM, the GI50 (786-0 renal) was 36.1 nM and the TGI (786-0 renal) was 15200 nM. For the same molecule, the GI50 (SK-MEL-28 melanoma) was 278 nM, the TGI (SK-MEL-28 melanoma) was 12900 nM and the GI50 (SW-620 colon) was 34.8 nM. It also gave a TGI (SW-620 colon) of 15800 nM, a GI50 (HCT-116 colon) of 36.2 nM and a TGI (HCT-116 colon) of 12500 nM. The GI50 (DU-145 prostate) was 66.3 nM, the TGI (DU-145 prostate) was 19400 nM and the GI50 (NCI-H226 lung) was 445 nM. For the same molecule, the TGI (NCI-H226 lung) was 19000 nM, the GI50 (K-562 leukemia) was 33.2 nM and the TGI (K-562 leukemia) was greater than 32700 nM. For the same molecule, the GI50 (CCRF-CEM leukemia) was 41.9 nM, the TGI (CCRF-CEM leukemia) was 33000 nM and the GI50 (LOX IMVI melanoma) was 16.7 nM. It also gave a TGI (LOX IMVI melanoma) of 44.7 nM, a GI50 (SN12C renal) of 54.2 nM and a TGI (SN12C renal) of 14000 nM. For the same molecule, the GI50 (NCI-H522 lung) was 41.7 nM, the TGI (NCI-H522 lung) was 14700 nM and the GI50 (PC-3 prostate) was 45 nM. It also gave a TGI (PC-3 prostate) of 17400 nM, a GI50 (RPMI-8226 leukemia) of 41.1 nM and a TGI (RPMI-8226 leukemia) of 6450 nM. The GI50 (KM12 colon) was 25.2 nM, the TGI (KM12 colon) was 16200 nM and the GI50 (SK-MEL-5 melanoma) was 17.9 nM. It also gave a TGI (SK-MEL-5 melanoma) of 35.4 nM, a GI50 (NCI-H460 lung) of 23.4 nM and a TGI (NCI-H460 lung) of 11200 nM. For the same molecule, the GI50 (U251 CNS) was 70.6 nM, the TGI (U251 CNS) was 18300 nM and the GI50 (OVCAR-8 ovarian) was 51.2 nM. It also gave a TGI (OVCAR-8 ovarian) of 23200 nM, a GI50 (M14 melanoma) of 23.6 nM and a TGI (M14 melanoma) of 63.9 nM. It also gave a GI50 (TK-10 renal) of 4280 nM, a TGI (TK-10 renal) of 21600 nM and a GI50 (OVCAR-5 ovarian) of 32.2 nM. For the same molecule, the TGI (OVCAR-5 ovarian) was 18300 nM, the GI50 (SK-OV-3 ovarian) was 13300 nM and the TGI (SK-OV-3 ovarian) was 27300 nM. For the same molecule, the GI50 (HCT-15 colon) was 34 nM, the TGI (HCT-15 colon) was 11900 nM and the GI50 (CAKI-1 renal) was 46.2 nM. The TGI (CAKI-1 renal) was 13800 nM, the GI50 (UACC-62 melanoma) was 23.9 nM and the TGI (UACC-62 melanoma) was 65.6 nM. It also gave a GI50 (NCI/ADR-RES ovarian) of 56.7 nM, a TGI (NCI/ADR-RES ovarian) of 16400 nM and a GI50 (IGROV1 ovarian) of 34.4 nM. For the same molecule, the TGI (IGROV1 ovarian) was 18500 nM, the GI50 (HT29 colon) was 29 nM and the TGI (HT29 colon) was 5770 nM. It also gave a GI50 (OVCAR-3 ovarian) of 63.6 nM, a TGI (OVCAR-3 ovarian) of 15700 nM and a GI50 (SF-268 CNS) of 40.2 nM. It also gave a TGI (SF-268 CNS) of 18200 nM, a GI50 (ACHN renal) of 40.5 nM and a TGI (ACHN renal) of 14500 nM. For the same molecule, the GI50 (OVCAR-4 ovarian) was 6450 nM, the TGI (OVCAR-4 ovarian) was 22000 nM and the GI50 (UO-31 renal) was 22.7 nM. For the same molecule, the TGI (UO-31 renal) was 79.9 nM, the GI50 (SR leukemia) was 27.3 nM and the TGI (SR leukemia) was greater than 100000 nM. The GI50 (MDA-MB-435) was 33.2 nM, the TGI (MDA-MB-435) was 12100 nM and the GI50 (MCF7 breast) was 61.3 nM. The TGI (MCF7 breast) was 15500 nM, the GI50 (A498 renal) was 543 nM and the TGI (A498 renal) was 18700 nM. For the same molecule, the GI50 (MOLT-4 leukemia) was 34 nM, the TGI (MOLT-4 leukemia) was 40800 nM and the GI50 (HOP-62 NSCLC) was 633 nM. It also gave a TGI (HOP-62 NSCLC) of 21400 nM, a GI50 (SNB-19 CNS) of 1660 nM and a TGI (SNB-19 CNS) of 19100 nM. For the same molecule, the GI50 (SF-295 CNS) was 21.2 nM, the TGI (SF-295 CNS) was 48.5 nM and the GI50 (MALME-3M melanoma) was 41.9 nM. For the same molecule, the TGI (MALME-3M melanoma) was 4600 nM, the GI50 (HOP-92 NSCLC) was 22.8 nM and the TGI (HOP-92 NSCLC) was 83.6 nM. It also gave a GI50 (SNB-75 CNS) of 255 nM, a TGI (SNB-75 CNS) of 21200 nM and a GI50 (BT-549 breast) of 30.8 nM. It also gave a TGI (BT-549 breast) of 18200 nM, a GI50 (RXF 393 renal) of 636 nM and a TGI (RXF 393 renal) of 7810 nM.
